Data published in the kinase profiling compilation of Christmann-Franck et al. (2016).

Key:
Test in all cases: Caliper, Mobility shift assay off-chip
[1] = molecular target: DDR2 (human) (UniProt Q16832)
[2] = molecular target: EPHB3 (human) (UniProt P54753)
[3] = molecular target: PAK7 (human) (UniProt Q9P286)
[4] = molecular target: AKT2 (human) (UniProt P31751)
[5] = molecular target: YES1 (human) (UniProt P07947)
[6] = molecular target: ACVR1B (human) (UniProt P36896)
[7] = molecular target: PKN2 (human) (UniProt Q16513)
[8] = molecular target: NLK (human) (UniProt Q9UBE8)
[9] = system: FGFR2 (human), P21802 [N549H]
[10] = molecular target: PDGFRA (human) (UniProt P16234)
[11] = molecular target: INSR (human) (UniProt P06213)
[12] = system: KIT (human), P10721 [V654A]
[13] = molecular target: CAMK2D (human) (UniProt Q13557)
[14] = molecular target: EPHB2 (human) (UniProt P29323)
[15] = molecular target: CDK5 CDK5R1 p25 (human) (UniProt Q15078+Q00535)
Chain of CDK5 CDK5R1 p25 (human) (Q00535 whole entry, looked up): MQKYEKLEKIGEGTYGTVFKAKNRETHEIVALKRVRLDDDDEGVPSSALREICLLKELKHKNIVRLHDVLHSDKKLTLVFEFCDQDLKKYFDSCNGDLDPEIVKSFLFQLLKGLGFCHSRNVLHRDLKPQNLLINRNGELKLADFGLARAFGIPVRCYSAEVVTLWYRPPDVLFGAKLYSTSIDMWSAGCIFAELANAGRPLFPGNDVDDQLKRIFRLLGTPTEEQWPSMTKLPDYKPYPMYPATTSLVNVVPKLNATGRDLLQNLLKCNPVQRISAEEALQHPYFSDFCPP
Chain of CDK5 CDK5R1 p25 (human) (Q15078 whole entry, looked up): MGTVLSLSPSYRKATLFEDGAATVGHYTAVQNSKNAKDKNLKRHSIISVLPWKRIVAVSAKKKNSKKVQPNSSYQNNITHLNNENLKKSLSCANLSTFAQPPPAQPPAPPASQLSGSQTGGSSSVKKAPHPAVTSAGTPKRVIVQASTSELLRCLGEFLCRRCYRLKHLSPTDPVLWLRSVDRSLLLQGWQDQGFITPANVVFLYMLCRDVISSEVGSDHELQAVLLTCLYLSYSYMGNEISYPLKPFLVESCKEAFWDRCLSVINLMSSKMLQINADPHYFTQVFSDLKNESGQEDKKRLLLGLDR

[16] = molecular target: EPHA8 (human) (UniProt P29322)
[17] = molecular target: PAK2 (human) (UniProt Q13177)
[18] = molecular target: HIPK2 (human) (UniProt Q9H2X6)
Chain of HIPK2 (human) (Q9H2X6 whole entry, looked up): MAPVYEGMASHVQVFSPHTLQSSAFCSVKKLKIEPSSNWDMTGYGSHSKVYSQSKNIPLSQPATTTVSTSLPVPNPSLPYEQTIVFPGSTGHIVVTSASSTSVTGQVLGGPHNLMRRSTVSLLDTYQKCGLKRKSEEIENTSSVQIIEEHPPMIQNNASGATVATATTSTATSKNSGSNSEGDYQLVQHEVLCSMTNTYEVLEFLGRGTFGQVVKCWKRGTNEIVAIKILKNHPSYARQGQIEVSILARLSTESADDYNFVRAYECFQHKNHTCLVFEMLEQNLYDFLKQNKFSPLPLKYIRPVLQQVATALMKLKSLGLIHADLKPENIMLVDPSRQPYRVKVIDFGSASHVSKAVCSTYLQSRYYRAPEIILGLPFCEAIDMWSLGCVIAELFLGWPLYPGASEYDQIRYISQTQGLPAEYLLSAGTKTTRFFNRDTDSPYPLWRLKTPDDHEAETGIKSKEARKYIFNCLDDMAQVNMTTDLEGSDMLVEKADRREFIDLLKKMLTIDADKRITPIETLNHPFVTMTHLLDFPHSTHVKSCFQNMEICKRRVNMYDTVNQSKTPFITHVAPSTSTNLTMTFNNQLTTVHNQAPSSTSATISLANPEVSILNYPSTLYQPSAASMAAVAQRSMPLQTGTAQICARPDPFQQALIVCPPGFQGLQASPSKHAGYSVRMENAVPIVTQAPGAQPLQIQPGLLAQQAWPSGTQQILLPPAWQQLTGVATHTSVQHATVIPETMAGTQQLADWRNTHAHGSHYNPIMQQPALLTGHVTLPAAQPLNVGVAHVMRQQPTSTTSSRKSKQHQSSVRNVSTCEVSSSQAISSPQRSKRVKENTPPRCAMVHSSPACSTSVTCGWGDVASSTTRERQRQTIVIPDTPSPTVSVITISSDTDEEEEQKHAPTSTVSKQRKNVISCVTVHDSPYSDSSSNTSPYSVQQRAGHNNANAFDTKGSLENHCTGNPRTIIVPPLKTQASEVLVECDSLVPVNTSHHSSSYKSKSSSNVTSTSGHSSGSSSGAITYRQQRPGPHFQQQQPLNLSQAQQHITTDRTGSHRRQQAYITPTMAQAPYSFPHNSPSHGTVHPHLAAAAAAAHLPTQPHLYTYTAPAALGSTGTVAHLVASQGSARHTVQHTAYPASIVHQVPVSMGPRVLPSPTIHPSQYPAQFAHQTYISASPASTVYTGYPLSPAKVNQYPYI

[19] = molecular target: IRAK4 (human) (UniProt Q9NWZ3)
Chain of IRAK4 (human) (Q9NWZ3 whole entry, looked up): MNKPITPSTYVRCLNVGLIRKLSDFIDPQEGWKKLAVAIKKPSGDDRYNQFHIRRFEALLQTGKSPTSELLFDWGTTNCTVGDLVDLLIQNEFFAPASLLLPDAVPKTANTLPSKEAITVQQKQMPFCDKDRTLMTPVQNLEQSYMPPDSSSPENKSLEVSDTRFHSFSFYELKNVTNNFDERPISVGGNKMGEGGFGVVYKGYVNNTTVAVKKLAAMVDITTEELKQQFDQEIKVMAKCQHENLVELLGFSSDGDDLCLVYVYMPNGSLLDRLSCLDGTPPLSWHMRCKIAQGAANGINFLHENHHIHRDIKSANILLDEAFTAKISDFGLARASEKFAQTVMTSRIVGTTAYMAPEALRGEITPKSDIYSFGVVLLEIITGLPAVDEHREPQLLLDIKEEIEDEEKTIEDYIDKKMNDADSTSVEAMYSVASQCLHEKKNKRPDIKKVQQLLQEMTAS

[20] = molecular target: MUSK (human) (UniProt O15146)
[21] = molecular target: MAP2K7 (human) (UniProt O14733)
Chain of MAP2K7 (human) (O14733 whole entry, looked up): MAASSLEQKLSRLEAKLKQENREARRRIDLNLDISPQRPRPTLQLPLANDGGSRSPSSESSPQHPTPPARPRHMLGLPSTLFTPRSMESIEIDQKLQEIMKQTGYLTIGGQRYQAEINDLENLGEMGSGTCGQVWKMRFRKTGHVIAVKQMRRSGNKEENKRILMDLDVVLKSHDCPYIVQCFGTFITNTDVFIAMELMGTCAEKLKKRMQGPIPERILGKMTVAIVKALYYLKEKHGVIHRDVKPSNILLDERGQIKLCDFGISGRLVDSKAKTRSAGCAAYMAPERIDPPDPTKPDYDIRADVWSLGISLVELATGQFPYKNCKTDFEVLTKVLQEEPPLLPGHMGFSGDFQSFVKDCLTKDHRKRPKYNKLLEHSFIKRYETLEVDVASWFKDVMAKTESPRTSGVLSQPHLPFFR

[22] = molecular target: CSK (human) (UniProt P41240)
[23] = molecular target: NTRK1 (human) (UniProt P04629)
[24] = molecular target: TYRO3 (human) (UniProt Q06418)
[25] = molecular target: TSSK2 (human) (UniProt Q96PF2)
[26] = molecular target: SRPK2 (human) (UniProt P78362)
Chain of SRPK2 (human) (P78362 whole entry, looked up): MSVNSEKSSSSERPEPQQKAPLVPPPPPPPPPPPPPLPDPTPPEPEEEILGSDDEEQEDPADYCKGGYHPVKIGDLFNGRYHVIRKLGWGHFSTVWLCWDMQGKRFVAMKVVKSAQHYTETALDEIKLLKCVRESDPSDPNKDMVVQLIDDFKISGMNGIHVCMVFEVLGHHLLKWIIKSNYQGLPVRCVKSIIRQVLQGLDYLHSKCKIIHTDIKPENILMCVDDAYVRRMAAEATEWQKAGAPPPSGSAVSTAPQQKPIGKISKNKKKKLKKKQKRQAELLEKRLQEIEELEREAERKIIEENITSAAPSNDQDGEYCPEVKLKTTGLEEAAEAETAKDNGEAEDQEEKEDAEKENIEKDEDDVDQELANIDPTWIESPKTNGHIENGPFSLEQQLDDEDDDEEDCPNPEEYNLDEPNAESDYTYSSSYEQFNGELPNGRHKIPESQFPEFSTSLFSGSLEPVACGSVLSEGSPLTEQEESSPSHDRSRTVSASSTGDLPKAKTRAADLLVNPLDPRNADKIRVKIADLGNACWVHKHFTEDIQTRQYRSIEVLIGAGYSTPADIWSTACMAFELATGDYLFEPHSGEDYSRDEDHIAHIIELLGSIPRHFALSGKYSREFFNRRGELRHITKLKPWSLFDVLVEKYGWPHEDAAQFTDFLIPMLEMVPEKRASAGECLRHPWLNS

[27] = molecular target: IKBKB (human) (UniProt O14920)
[28] = molecular target: CDK6 CCND3 (human) (UniProt Q00534+P30281)
[29] = molecular target: PASK (human) (UniProt Q96RG2)
[30] = molecular target: TAOK3 (human) (UniProt Q9H2K8)
[31] = molecular target: EPHA3 (human) (UniProt P29320)
Chain of EPHA3 (human) (P29320 whole entry, looked up): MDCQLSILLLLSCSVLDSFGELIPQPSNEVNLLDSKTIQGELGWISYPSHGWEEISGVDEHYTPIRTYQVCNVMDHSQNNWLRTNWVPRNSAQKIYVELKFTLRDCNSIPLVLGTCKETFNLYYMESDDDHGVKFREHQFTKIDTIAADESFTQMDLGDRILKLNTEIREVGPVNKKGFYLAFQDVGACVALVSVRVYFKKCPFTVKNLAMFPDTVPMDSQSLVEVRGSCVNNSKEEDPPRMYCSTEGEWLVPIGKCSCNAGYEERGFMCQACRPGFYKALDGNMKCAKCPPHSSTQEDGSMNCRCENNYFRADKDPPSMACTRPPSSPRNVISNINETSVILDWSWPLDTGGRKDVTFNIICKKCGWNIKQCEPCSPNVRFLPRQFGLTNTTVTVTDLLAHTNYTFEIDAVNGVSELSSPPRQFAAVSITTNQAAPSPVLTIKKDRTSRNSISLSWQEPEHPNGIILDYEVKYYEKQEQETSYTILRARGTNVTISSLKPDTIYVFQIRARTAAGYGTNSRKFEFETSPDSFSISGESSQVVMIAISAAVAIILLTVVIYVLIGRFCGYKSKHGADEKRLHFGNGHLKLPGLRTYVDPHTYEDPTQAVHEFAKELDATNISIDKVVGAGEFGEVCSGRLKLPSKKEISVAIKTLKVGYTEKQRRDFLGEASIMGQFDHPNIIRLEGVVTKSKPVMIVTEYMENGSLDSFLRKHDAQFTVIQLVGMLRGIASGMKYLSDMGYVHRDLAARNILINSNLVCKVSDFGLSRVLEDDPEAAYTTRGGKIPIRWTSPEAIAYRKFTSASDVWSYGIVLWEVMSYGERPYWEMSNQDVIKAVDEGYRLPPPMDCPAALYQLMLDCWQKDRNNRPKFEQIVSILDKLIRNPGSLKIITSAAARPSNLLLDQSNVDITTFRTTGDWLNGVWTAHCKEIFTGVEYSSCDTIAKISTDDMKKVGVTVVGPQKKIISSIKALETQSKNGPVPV

[32] = system: FLT3 (human), P36888 [D835Y]
[33] = molecular target: PIM3 (human) (UniProt Q86V86)
[34] = molecular target: NEK11 (human) (UniProt Q8NG66)
[35] = molecular target: PRKCH (human) (UniProt P24723)
[36] = molecular target: CSF1R (human) (UniProt P07333)
[37] = molecular target: PRKG2 (human) (UniProt Q13237)
[38] = molecular target: SRPK1 (human) (UniProt Q96SB4)
[39] = molecular target: MAP3K9 (human) (UniProt P80192)
[40] = molecular target: GSK3A (human) (UniProt P49840)
Chain of GSK3A (human) (P49840 whole entry, looked up): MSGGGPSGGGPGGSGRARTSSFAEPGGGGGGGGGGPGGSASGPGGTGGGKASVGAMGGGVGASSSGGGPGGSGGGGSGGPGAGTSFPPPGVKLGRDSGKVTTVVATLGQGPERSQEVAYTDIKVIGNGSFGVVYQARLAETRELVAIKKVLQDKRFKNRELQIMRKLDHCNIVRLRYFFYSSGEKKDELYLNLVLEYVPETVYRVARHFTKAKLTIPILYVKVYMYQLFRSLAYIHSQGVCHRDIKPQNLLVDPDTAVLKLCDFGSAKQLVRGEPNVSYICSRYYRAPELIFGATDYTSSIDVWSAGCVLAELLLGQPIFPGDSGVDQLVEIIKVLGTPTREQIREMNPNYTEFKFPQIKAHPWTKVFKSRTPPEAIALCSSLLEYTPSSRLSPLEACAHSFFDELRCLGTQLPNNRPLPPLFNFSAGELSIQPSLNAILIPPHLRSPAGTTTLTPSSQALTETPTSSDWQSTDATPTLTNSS

[41] = molecular target: CDC42BPA (human) (UniProt Q5VT25)

## O=C(N[C@@H](COc1ccc2[nH]c(=O)[nH]c2c1)c1ccccc1)c1cccn(Cc2ccc(F)c(F)c2)c1=O
[1]; compound 10.0 µM
  residual activity: 118%
[2]; compound 10.0 µM
  residual activity: 129%
[3]; compound 10.0 µM
  residual activity: 100%
[4]; compound 10.0 µM
  residual activity: 103%
[5]; compound 10.0 µM
  residual activity: 91%
[6]; compound 10.0 µM
  residual activity: 115%
[7]; compound 10.0 µM
  residual activity: 96%
[8]; compound 10.0 µM
  residual activity: 100%
[9]; compound 10.0 µM
  residual activity: 106%
[10]; compound 10.0 µM
  residual activity: 108%
[11]; compound 10.0 µM
  residual activity: 98%
[12]; compound 10.0 µM
  residual activity: 102%
[13]; compound 10.0 µM
  residual activity: 92%
[14]; compound 10.0 µM
  residual activity: 90%
[15]; compound 10.0 µM
  residual activity: 111%
[16]; compound 10.0 µM
  residual activity: 107%
[17]; compound 10.0 µM
  residual activity: 94%
[18]; compound 10.0 µM
  residual activity: 107%
[19]; compound 10.0 µM
  residual activity: 108%
[20]; compound 10.0 µM
  residual activity: 98%
[21]; compound 10.0 µM
  residual activity: 95%
[22]; compound 10.0 µM
  residual activity: 114%
[23]; compound 10.0 µM
  residual activity: 108%
[24]; compound 10.0 µM
  residual activity: 118%
[25]; compound 10.0 µM
  residual activity: 115%
[26]; compound 10.0 µM
  residual activity: 102%
[27]; compound 10.0 µM
  residual activity: 100%
[28]; compound 10.0 µM
  residual activity: 102%
[29]; compound 10.0 µM
  residual activity: 111%
[30]; compound 10.0 µM
  residual activity: 98%
[31]; compound 10.0 µM
  residual activity: 118%
[32]; compound 10.0 µM
  residual activity: 99%
[33]; compound 10.0 µM
  residual activity: 97%
[34]; compound 10.0 µM
  residual activity: 126%
[35]; compound 10.0 µM
  residual activity: 96%
[36]; compound 10.0 µM
  residual activity: 107%
[37]; compound 10.0 µM
  residual activity: 108%
[38]; compound 10.0 µM
  residual activity: 104%
[39]; compound 10.0 µM
  residual activity: 91%
[40]; compound 10.0 µM
  residual activity: 102%
[41]; compound 10.0 µM
  residual activity: 101%

## Cc1n[nH]c2c1c(=O)n(CCCN)c1ccc(Cl)cc21
[1]; compound 1.0 µM
  residual activity: 107%
[2]; compound 1.0 µM
  residual activity: 136%
[4]; compound 1.0 µM
  residual activity: 94%
[5]; compound 1.0 µM
  residual activity: 77%
[6]; compound 1.0 µM
  residual activity: 138%
[7]; compound 1.0 µM
  residual activity: 78%
[10]; compound 1.0 µM
  residual activity: 110%
[11]; compound 1.0 µM
  residual activity: 103%
[14]; compound 1.0 µM
  residual activity: 239%
[15]; compound 1.0 µM
  residual activity: 108%
[17]; compound 1.0 µM
  residual activity: 106%
[18]; compound 1.0 µM
  residual activity: 105%
[19]; compound 1.0 µM
  residual activity: 85%
[20]; compound 1.0 µM
  residual activity: 91%
[21]; compound 1.0 µM
  residual activity: 103%
[22]; compound 1.0 µM
  residual activity: 110%
[23]; compound 1.0 µM
  residual activity: 46%
[24]; compound 1.0 µM
  residual activity: 111%
[25]; compound 1.0 µM
  residual activity: 56%
[26]; compound 1.0 µM
  residual activity: 108%
[27]; compound 1.0 µM
  residual activity: 104%
[28]; compound 1.0 µM
  residual activity: 106%
[31]; compound 1.0 µM
  residual activity: 99%
[32]; compound 1.0 µM
  residual activity: 5%
[35]; compound 1.0 µM
  residual activity: 95%
[36]; compound 1.0 µM
  residual activity: 55%
[38]; compound 1.0 µM
  residual activity: 106%
[40]; compound 1.0 µM
  residual activity: 107%

## O=C(NCCCNc1nc(Nc2cccc(NC(=O)N3CCCC3)c2)ncc1I)c1cccs1
[1]; compound 1.0 µM
  residual activity: 113%
[2]; compound 1.0 µM
  residual activity: 93%
[3]; compound 1.0 µM
  residual activity: 115%
[4]; compound 1.0 µM
  residual activity: 98%
[5]; compound 1.0 µM
  residual activity: 110%
[6]; compound 1.0 µM
  residual activity: 99%
[7]; compound 1.0 µM
  residual activity: 63%
[8]; compound 1.0 µM
  residual activity: 58%
[9]; compound 1.0 µM
  residual activity: 50%
[10]; compound 1.0 µM
  residual activity: 86%
[11]; compound 1.0 µM
  residual activity: 91%
[12]; compound 1.0 µM
  residual activity: 73%
[13]; compound 1.0 µM
  residual activity: 3%
[14]; compound 1.0 µM
  residual activity: 103%
[15]; compound 1.0 µM
  residual activity: 46%
[16]; compound 1.0 µM
  residual activity: 106%
[17]; compound 1.0 µM
  residual activity: 111%
[18]; compound 1.0 µM
  residual activity: 93%
[19]; compound 1.0 µM
  residual activity: 85%
[20]; compound 1.0 µM
  residual activity: 89%
[21]; compound 1.0 µM
  residual activity: 106%
[22]; compound 1.0 µM
  residual activity: 107%
[23]; compound 1.0 µM
  residual activity: 31%
[24]; compound 1.0 µM
  residual activity: 84%
[25]; compound 1.0 µM
  residual activity: 52%
[26]; compound 1.0 µM
  residual activity: 99%
[27]; compound 1.0 µM
  residual activity: 105%
[28]; compound 1.0 µM
  residual activity: 86%
[29]; compound 1.0 µM
  residual activity: 103%
[30]; compound 1.0 µM
  residual activity: 10%
[31]; compound 1.0 µM
  residual activity: 114%
[32]; compound 1.0 µM
  residual activity: 2%
[33]; compound 1.0 µM
  residual activity: 116%
[34]; compound 1.0 µM
  residual activity: 117%
[35]; compound 1.0 µM
  residual activity: 95%
[36]; compound 1.0 µM
  residual activity: 86%
[37]; compound 1.0 µM
  residual activity: 100%
[38]; compound 1.0 µM
  residual activity: 100%
[39]; compound 1.0 µM
  residual activity: 23%
[40]; compound 1.0 µM
  residual activity: 68%
[41]; compound 1.0 µM
  residual activity: 97%
